{"source": "paper PMC9046198", "about": "“Peptidoglycan biosynthesis is driven by lipid transfer along enzyme-substrate affinity gradients” (Nature Communications, 2022)", "key": {"[1]": {"molecular_target": "T1, MraY (Aquifex aeolicus, UniProt O66465)", "T1 construct": "wild-type MraY, MBP tag removed with HRV3C protease", "T1 sequence (O66465 1-359)": "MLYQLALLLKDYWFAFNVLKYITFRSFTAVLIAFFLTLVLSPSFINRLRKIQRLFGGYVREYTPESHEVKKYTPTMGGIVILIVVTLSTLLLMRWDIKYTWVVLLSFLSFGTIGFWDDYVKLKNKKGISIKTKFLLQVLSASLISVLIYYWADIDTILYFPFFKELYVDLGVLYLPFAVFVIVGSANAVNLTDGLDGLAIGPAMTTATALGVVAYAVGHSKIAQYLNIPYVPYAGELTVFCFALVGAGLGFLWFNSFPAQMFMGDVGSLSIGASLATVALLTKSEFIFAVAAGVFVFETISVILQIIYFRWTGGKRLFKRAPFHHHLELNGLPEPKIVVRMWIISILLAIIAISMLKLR", "experiment": "native MS, endogenous adducts and exogenous C55-P titration", "format": "binding"}, "[2]": {"molecular_target": "T2, MurG (Escherichia coli, UniProt P17443)", "T2 construct": "MurG-GFP-His6 fusion, tag removed with TEV protease", "T2 sequence (P17443 2-355)": "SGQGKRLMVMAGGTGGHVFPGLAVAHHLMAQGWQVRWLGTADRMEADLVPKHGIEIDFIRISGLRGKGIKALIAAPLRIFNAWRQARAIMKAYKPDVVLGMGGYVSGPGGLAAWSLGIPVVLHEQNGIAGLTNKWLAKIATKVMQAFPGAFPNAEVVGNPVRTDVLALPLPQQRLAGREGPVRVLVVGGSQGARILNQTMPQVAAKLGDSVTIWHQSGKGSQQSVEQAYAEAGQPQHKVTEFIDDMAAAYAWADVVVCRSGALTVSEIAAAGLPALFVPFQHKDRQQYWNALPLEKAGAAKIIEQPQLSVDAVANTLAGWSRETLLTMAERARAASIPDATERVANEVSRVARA", "experiment": "turnover by purified MurG (with MraY-bound lipid I) to lipid II monitored by native MS", "format": "biochemical"}, "[3]": {"molecular_target": "T2, MurG", "experiment": "native MS titration ([…] MurG, […] lipid I), apparent Kd", "format": "binding"}, "[4]": {"molecular_target": "T2, MurG", "experiment": "native MS titration, apparent Kd", "format": "binding"}, "[5]": {"molecular_target": "T1, MraY", "experiment": "native MS binding to MraY dimer; also inhibits lipid I synthesis by purified MraY ([…])"}}}
{"compound": "CC(C)=CCC/C(C)=C/CC/C(C)=C/CC/C(C)=C\\CC/C(C)=C\\CC/C(C)=C\\CC/C(C)=C\\CC/C(C)=C\\CC/C(C)=C\\CC/C(C)=C\\CC/C(C)=C\\COP(=O)(O)O", "note": "[C55-P, undecaprenyl phosphate]", "values": [{"measurement": "native MS, endogenous adducts and exogenous C55-P titration", "setting": "[1]", "result": "The binding of up to four C55-P molecules per MraY dimer could be clearly resolved"}]}
{"compound": "CC(=O)N[C@H]1[C@@H](OP(=O)(O)OP(=O)(O)OC[C@H]2O[C@@H](n3ccc(=O)[nH]c3=O)[C@H](O)[C@@H]2O)O[C@H](CO)[C@@H](O)[C@@H]1O", "note": "[UDP-GlcNAc]", "values": [{"measurement": "turnover by purified MurG (with MraY-bound lipid I) to lipid II monitored by nat", "setting": "[2]", "result": "we incubated MraY with MurG and UDP-GlcNAc and observed the formation of lipid II"}]}
{"compound": "CC(=O)N[C@H]1[C@@H](OP(=O)(O)OP(=O)(O)OC/C=C(/C)CC/C=C(/C)CC/C=C(/C)CC/C=C(/C)CC/C=C(/C)CC/C=C(/C)CC/C=C(/C)CC/C=C(/C)CC/C=C(\\C)CC/C=C(\\C)CCC=C(C)C)O[C@H](CO)[C@@H](O)[C@@H]1O[C@H](C)C(=O)N[C@@H](C)C(=O)N[C@H](CCC(=O)N[C@@H](CCCCN)C(=O)N[C@H](C)C(=O)N[C@H](C)C(=O)O)C(=O)O", "note": "[lipid I]", "values": [{"measurement": "Kd", "setting": "[3]", "result": "1.9 ± 0.4", "unit": "µM"}]}
{"compound": "lipid II", "values": [{"measurement": "Kd", "setting": "[4]", "result": "2.6 ± 0.9", "unit": "µM"}]}
{"compound": "tunicamycin", "values": [{"measurement": "native MS binding to MraY dimer; also inhibits lipid I synthesis by purified Mra", "setting": "[5]", "result": "We also captured the binding of a nucleoside antibiotic tunicamycin to the MraY dimer."}]}
